Among the data in PubChem BioAssay (NCI) are TGI and GI50 values, retold here.

Holding throughout (test): growth of human tumour cells (NCI), 48 h
Test [1] concerns SF-268 CNS.
Test [2] has as its system TK-10 renal.
In test [3] the test system is NCI-H23 lung.
Test [4] relates to OVCAR-3 ovarian.
Test [5] relates to SW-620 colon.
Test [6] has as its system OVCAR-4 ovarian.
The subject of test [7] is SR leukemia.
Test [8] concerns HCT-15 colon.
For test [9], the system named is HCC-2998 colon.
The test system of test [10] is MCF7 breast.

Structures are written as SMILES.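 Cells were grown in 96-well plates and exposed to each compound for 48 hours at five concentrations; endpoints were interpolated linearly between bracketing concentrations, or set to the highest concentration if not reached. GI50 is the concentration that inhibits growth by half. TGI marks complete inhibition of growth.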

With `O=C1c2ccoc2C(=O)c2oc(=O)ccc21`, the TGI is 27.1 µM in test [1]; greater than 59.1 µM in test [2]; 4.01 µM in [3]; 8.69 µM in test [4]; 11.5 µM in test [5]; 13.5 µM in test [6]. Besides, the TGI in [7] is 3.83 µM; in test [8], 24.9 µM; in test [9], greater than 59 µM.
Consider `O=CC(O)C(O)C(OC1OC(CO)C(O)C(O)C1O)C(O)CO` (stereo not given) (tested in a mixture with another compound), for which the TGI in test [1], in [2], in test [3], in [4], in test [5] and in test [10] was greater than 100 µM throughout. For the same compound, the TGI in test [6] is greater than 100 µM; in test [7], 33.1 µM; in test [8], 54 µM.
Turning to `O=[N+]([O-])c1ccc(/C=C\c2ccc3c(c2)OCO3)c([N+](=O)[O-])c1`, the TGI is 58.5 µM in [1]; 46.3 µM in [2]; 48.6 µM in test [3]; 43.1 µM in test [4]; 41.6 µM in test [5]; 8.58 µM in test [10]. Also, the values for the TGI in test [7], in test [8] and in test [9] were 23.6 µM, 37.3 µM and 27.6 µM, respectively.
Regarding `Nc1ncnc2sc(Nc3ccccc3)nc12`, the TGI in test [1], in test [2], in test [3], in [4], in test [5] and in test [6] was greater than 100 µM throughout. For the same compound, the TGI in [7], in test [8] and in test [9] was greater than 100 µM in each case.
As to `Cn1cc(NC(=O)c2cc(NC(=O)CCCCCCCC(=O)Nc3cc(C(=O)Nc4cc(C(=O)NCCC(=N)N)n(C)c4)n(C)c3)cn2C)cc1C(=O)NCCC(=N)N`, the TGI in test [1] was 45.9 µM; in test [2], 36.7 µM; in test [3], 33.7 µM; in [4], 65.7 µM; in [5] it was greater than 100 µM; in test [6], greater than 100 µM. The TGI is 92.7 µM in test [7], greater than 100 µM in test [8] and 30.2 µM in test [9].
With `CCOC(=O)C1=C(C)N(Cc2ccc(Cl)cc2Cl)[C@]2(C#N)C(O)=C(Cl)C(Cl)=C(O)[C@]12C#N`, the GI50 was 42.1 µM in test [1]; 84.7 µM in test [2]; 16.3 µM in [3]; 46.7 µM in test [4]; 31.8 µM in [5]; 39.3 µM in test [10]. Moreover, the GI50 is greater than 100 µM in [6], 16 µM in test [7] and 62 µM in test [8]. Further, the TGI in test [1] was greater than 100 µM; in test [2], greater than 100 µM; in [3], 80.4 µM; in test [4], greater than 100 µM; in [5], 82.9 µM; in [10] it was greater than 100 µM. The TGI in test [6] is greater than 100 µM; in [7], 38.9 µM; in test [8], greater than 100 µM.
For the compound `CC1(C)CC(O)CC(C)(C)N1.CC1(C)CC(O)CC(C)(C)N1.CC1(C)CC(O)CC(C)(C)N1.CC1(C)CC(O)CC(C)(C)N1.Cl.[Ti]`, the GI50 in [1], in test [2], in test [3], in [4], in test [5] and in test [6] was greater than 100 µM in each case. Also, the GI50 in [7], in [8] and in test [9] was greater than 100 µM throughout. For the same compound, the TGI in test [1], in test [2], in test [3], in test [4], in test [5] and in [6] was greater than 100 µM in each case. Further, the TGI in test [7], in [8] and in test [9] was greater than 100 µM in each case.
As for `CN(C)c1ccc2c(c1)OC(N)=C(C#N)C2c1ccc2c(c1)CCCN2C` (stereo not given), the GI50 in [1] is 6.85 µM; in [2], 10.2 µM; in test [3], 2.83 µM; in test [4], 0.691 µM; in test [5] it was 0.938 µM; in [10], 0.444 µM. Further, the GI50 in [6] was 5.01 µM; in test [7] it was 0.648 µM; in [8] it was 0.789 µM. Besides, the TGI in test [1] is greater than 100 µM; in [2], 91.7 µM; in test [3], 92.1 µM; in test [4] it was 10.3 µM; in [5], greater than 100 µM; in [10], 33.4 µM. For the same compound, the results for the TGI in test [6], in test [7] and in [8] were greater than 100 µM, 16.6 µM and greater than 100 µM, respectively.
On to `CCN(CC)CCCNc1c2ccc(Cl)cc2nc2ccc(OC)cc12`, for which the GI50 is 0.0618 µM in test [1]; 1.69 µM in test [2]; 0.0401 µM in test [5]; 0.0377 µM in [10]; 0.0304 µM in test [6]; 0.029 µM in [7]. The GI50 in [8] was 0.0345 µM. Besides, the TGI worked out at 3.53 µM in [1]; 4.83 µM in test [2]; 2.36 µM in test [5]; 3.16 µM in test [10]; 2.77 µM in [6]; 3.67 µM in test [7]. Moreover, the TGI in test [8] worked out at 2.51 µM.
For the compound `CCN(CC)C(=O)CCCCCn1c2ccccc2c2c3c(c4c5ccccc5[nH]c4c21)C(=O)N(O)C3=O`, the GI50 in [1] is 3.97 µM; in [2], 3.64 µM; in [3], 3.33 µM; in test [5] it was 4.29 µM; in test [10] it was 2.94 µM; in test [6], 5.06 µM. The GI50 in test [7] was 1.56 µM; in test [8], 4.07 µM; in [9], 4.72 µM. Also, the TGI in [1] is greater than 100 µM; in test [2] it was 64 µM; in [3], 47.3 µM; in [5] it was greater than 100 µM; in [10], greater than 100 µM; in test [6], greater than 100 µM. Moreover, the TGI was 13.6 µM in [7], greater than 100 µM in test [8] and 27.1 µM in test [9].
As for `O=C(O)Cn1ccc(=O)c2c([N+](=O)[O-])cccc21`, the TGI in [1], in test [2], in test [3], in test [4], in test [5] and in test [10] was greater than 100 µM throughout. The TGI in test [7], in test [8] and in test [9] was greater than 100 µM each time.
